Data on one compound can be found in publication PMC8623418, “Novel Multitarget Hydroxamic Acids with a Natural Origin CAP Group against Alzheimer’s Disease: Synthesis, Docking and Biological Evaluation” (Pharmaceutics, 2021).

The test has as its system 5xFAD transgenic mice. The experiment in a line: Ex vivo electron transport chain activity of brain mitochondria (Seahorse OCR). The following applies: brain mitochondrial p2 fraction of treated 5xFAD mice. The class given is in vivo. On the procedure:
At the end of the in vivo series of experiments, the animals’ brains were sampled for further measurement of the lipid peroxidation level, as well as glutathione content in mouse brain homogenates. A synaptosomal p2 fraction containing mitochondria was also isolated to investigate the bioenergetic characteristics of organelles.
The study on the effect of the electron transport chain complexes was carried out on a preparation of the mitochondrial p2 fraction of the brain (10 µg/well) using the Agilent Seahorse XF96e Analyzer (Seahorse Bioscience, Santa Clara, CA, USA) to measure the rate of oxygen uptake under the action of modulators. For this purpose, the activators of the electron transport chain complex I-glutamate/malate, the inhibitor of complex I, rotenone (2 µM), the substrate of complex II, potassium succinate ([…]), the inhibitor of complex III, antimycin A, and the substrates of complex IV, ascorbate, were used/TMPD (0.5 µM).
To evaluate mitochondrial functioning, we determined the functioning of the respiratory chain complexes using Seahorse Bioanalyzer. […] However, the oxygen consumption rate (OCR) was increased in transgenic animals treated with the test compounds.

For the compound `O=C(CCCCCCC(=O)NC1C2CC3CC(C2)CC1C3)NO` (centres unmarked) [compound 15, N^1-(Adamant-2-yl)-N^8-Hydroxyoctanediamide], the “Oxygen consumption rate (OCR) after injection of succinate” value (complex II) is 251.00 ± 10.45 pmol/min. Further, under “complex IV”, the “Oxygen consumption rate (OCR) after injection of ascorbate” value is 422.67 ± 14.61 pmol/min.
